# Assay results from US8921420B2, “Method for preparing dicaffeoylquinic acids and use thereof in combating aphids” (Institut National de la Recherche Agronomique, priority 2008, dated 2014).
# Experiments:
# [1] = test system: Myzus persicae; test: Selection test between two media (phagostimulation index, repulsivity); format: in vivo; details: for concentration at which the repulsive effect (negative phagostimulation index) is significant: tested against Ap3 medium, lowest concentration tested 0.25 mM; for concentration at which significantly repulsive: against Ap3 control medium
# Excerpt: The method used is the one developed by Yvan Rahbé (Rahbé & Febvay (1993) Entomologia Experimentalis et Applicata 67: 149-160; Chen (1996) Thesis, Institut National des Sciences Appliquées, Lyon, France: 158 pp.) in the context of research on the chemical determinants of plant resistance to various aphid species (Aphis gossypii, Acyrthosiphon pisum), and adapted to the green peach aphid, Myzus persicae.
# (§1) The goal is to evaluate the attractive or repulsive character of a candidate molecule, at various concentrations, either in relation to a control base medium or in relation to another substance. The base medium used, referred to as Ap3 (composition in the table in FIG. 10), was developed at the UMR INRA-INSA in Lyon in order to enable optimal development of the Acyrtosiphon pisum aphid species (Febvay et al. (1988) Canadian Journal of Zoology 66: 2149-2453). It also enables the development of Myzus persicae. This base medium may or may not be supplemented by the various phenolic acids tested. The aphid's selected behavior when placed in the presence of both media is studied inside a closed system where the insect has no alternative in order to feed itself but to select one of the two media. The device is shown in diagram form in FIG. 11.
# The medium (35 μl) is poured between two Parafilm® membranes stretched onto an Eppendorf® cone. On a rack holding 6 experiment cages, a control medium is arranged opposite a test medium on each cage. The repetitions of a single modality (control medium or test medium) are arranged in alternating fashion along the rack, in order to prevent any systematic bias when the aphids are placed inside. At the end of the day, six aphid larvae (second or third stage) are placed inside each of the cages of one rack. Next, the racks are inserted into a black box placed inside a climate-controlled test chamber at 19° C. for 15 hours. This passage into darkness stabilizes the larvae's fixation more quickly. The following morning, the number of aphids fixed on each medium is recorded. The tests are performed in routine fashion on 24 selection repetitions (4 racks with 6 cages each). A phagostimulation index, representing the degree of desire for the aphid in the test medium, is calculated as follows: Phagostimulation index=(Test no.−Control no.)/Total no., wherein:
# Test no.=Number of aphids fixed on the test medium,
# Control no.=Number of aphids fixed on the control medium,
# Total no.=Total number of fixed aphids.
# Consequently, the value of the index ranges from −1 to 1. A negative index means that the test medium is repulsive in relation to the control medium, and a positive index means that the test medium is attractive. The hypothesis that the effect of the test medium is identical to that of the control medium is examined by the Wilcoxon rank test.
# The tested phenolic substances other than 3,5-diCQ are of commercial origin apart from the caffeic acid methyl ester, which was synthesized. The molecules were characterized by mass spectrometry and proton nuclear magnetic resonance. The amount and stability of the dissolved molecules are monitored by HPLC after the molecules are dissolved in the Ap3 medium, at the beginning and at the end of the experiment.
# [2] = test system: Myzus persicae; test: Toxicity test on larval development on Ap3 feeding medium (larval mortality, weight of wingless adults); format: in vivo
# Experimental: The goal is to quantify the toxic effect of 3,5-diCQ on the aphid throughout its larval development, namely 8 to 10 days for Myzus persicae at 19° C. The molecule is added at various concentrations to the Ap3 feeding medium.
# (§2) The medium ([…]) is poured between two UV-sterilized Parafilm® membranes and drawn onto a cylindrical support made of PVC (h=1.5 cm, d=2 cm), under sterile conditions. On Day D0, 20 neonate larvae are placed inside the cylinder, which is then turned over and pressed onto a square of Parafilm®. The dishes are placed under dimmed light (16 hr day/8 hr night) and in an enclosure set at 19° C. The fixation percentage is recorded after 1 hour as a short-term phagostimulation indicator and in order to verify that no anomaly had occurred when the aphids were placed inside the cylinder. Larval mortality is noted daily at the end of the day. On Day D+3, the larvae are sampled and split up into two new dishes. On the day of their adult molt, the aphids that have reached the wingless adult stage are deposited successively onto a precision scale (d=0.01 mg) and the cumulative weights are recorded for each concentration of each tested molecule. Individual weights are calculated thereafter. The effects of a single molecule at all concentrations and the effects of the control medium are evaluated simultaneously during the same test. The tests are routinely performed in 3 repetitions.
# [3] = test system: Acyrtosiphon pisum; test: Selection test (phagorepulsive effect), first-stage larvae; format: in vivo, Acyrthosiphon pisum; details: FIG. 21
# Excerpt: as §1
# (§3) The medium (35 μl) is poured between two Parafilm® membranes stretched onto an Eppendorf® cone. On a rack holding 6 experiment cages, a control medium is arranged opposite a test medium on each cage. […] The following morning, the number of aphids fixed on each medium is recorded. […] A phagostimulation index, representing the degree of desire for the aphid in the test medium, is calculated as follows: Phagostimulation index=(Test no.−Control no.)/Total no., wherein: […]
# [4] = test system: Macrosiphum euphorbiae; test: as above; format: in vivo; details: FIG. 23
# Excerpt: as §1, §3
# [5] = test system: Acyrtosiphon pisum; test: Toxicity test during larval development; format: in vivo; details: FIG. 22
# Experimental: as §2
# (§4) Regarding the toxicity tests, no changes were made to the protocol for tests on Macrosiphum euphorbiae. However, given the size and sensitivity to stress of Acyrthosiphon pisum, the number of individuals per dish was changed to 10, the number of repetitions per tested dose was changed to 4, and no change was made to the medium during the test, as excessive disturbance of the aphids would have resulted from doing so.
# [6] = test system: Macrosiphum euphorbiae; test: Toxicity test during larval development; format: in vivo; details: FIG. 24
# Experimental: as §2, §4
# [7] = test system: chewing insects; details: Tamura et al. 2004; Mullin et al. 1991; cited from earlier work
# [8] = FIG. 15, range 0.03125 to 1 mM, against Ap3
smiles,measurement,setting,value
"O=C(O)/C=C/c1ccc(O)cc1 [Para-coumaric acid, para-coumaric acid, reference compound]",repulsive effect (in words),"[1]; FIG. 12, concentration range tested, against Ap3 medium",no repulsive effect
"O=C(/C=C/c1ccc(O)c(O)c1)O[C@@H]1C[C@](O)(C(=O)O)C[C@@H](O)[C@H]1O [chlorogenic acid, 5-caffeoylquinic acid, reference compound]",effect on weight of wingless adults (in words),[2]; FIG. 18,probiotic effect
same,larval mortality,[2]; in vivo,≤ 10%
same,toxic effect on larval development (in words),[2]; in vivo,no negative effects
same,concentration at which the repulsive effect (negative phagostimulation index) is significant,[1]; FIG. 12,0.5 mM
same,concentration at which significantly repulsive,[1]; FIG. 13,0.25 mM
"O=C(/C=C/c1ccc(O)c(O)c1)O[C@H]1[C@H](O)C[C@](O)(C(=O)O)C[C@H]1OC(=O)/C=C/c1ccc(O)c(O)c1 [4,5-diCQ, 4,5-dicaffeoylquinic acid]",dose with significant depressive effect on weight of wingless adults,[2]; FIG. 20,0.25 mM
same,toxic effect on larval development (in words),[2]; in vivo,toxic activity
same,dose starting at which significant repulsive effects were detected,[1]; [8],0.03125 mM
same,dose with highly significant repulsive effect,[1]; [8],0.125 mM
same,repulsive effect / activity (in words),[1]; in vivo,repulsive activity
"O=C(/C=C/c1ccc(O)c(O)c1)O[C@@H]1C[C@](OC(=O)/C=C/c2ccc(O)c(O)c2)(C(=O)O)C[C@@H](O)[C@H]1O [1,5-diCQ, 1,5-dicaffeoylquinic acid]",toxic effect on larval development (in words),[2]; in vivo,toxic activity
O=C(/C=C/c1ccc(O)c(O)c1)O[C@@H]1C[C@@](OC(=O)/C=C/c2ccc(O)c(O)c2)(C(=O)O)C[C@@H](O)[C@@H]1O [cynarin],effect on the aphids' weights (in words),"[2]; FIG. 20, at the 0.25 mM dose",no effect
same,concentration at which the repulsive effect (negative phagostimulation index) is significant,[1]; FIG. 12,1 mM
"O=C(/C=C/c1ccc(O)c(O)c1)O[C@@H]1CC(O)(C(=O)O)C[C@@H](OC(=O)/C=C/c2ccc(O)c(O)c2)C1O (stereo partly drawn) [3,5-diCQ, 3,5-dicaffeoylquinic acid]",dose starting at which significant repulsive effect,[3],0.03125 mM
same,toxic effect at 0.03125 mM (in words),[2]; 0.03125 mM,no toxic or repulsive effect
same,reaching the wingless adult stage,[2]; 1 and 2 mM concentrations,no aphids reached the wingless adult stage
same,larval mortality,"[2]; FIG. 16, at 2 mM",~100%
same,dose starting at which significant depressive effect on weight of wingless adults,[2]; FIG. 17,0.25 mM
same,dose with significant depressive effect on weight of wingless adults,[2]; FIG. 20,0.5 mM
same,toxic effect on larval development (in words),[2]; in vivo,high mortality
same,toxic effect on larval development (in words),"[2]; in vivo, listed as 3,5-dicaffeoylquinic acid",toxic activity
same,dose starting at which highly significant repulsive effect,[4],0.125 mM
same,mortality,"[5]; starting at 0.03125 mM, within 2 days",exceeds 50%
same,mortality,"[5]; starting at 0.25 mM, within 4 days",100%
same,mortality,"[6]; 0.25 mM dose, within 6 days",~100%
same,mortality,"[6]; 0.5 and 1 mM doses, within 3 to 7 days",100%
same,effect on feeding of chewing insects (in words),[7],phagostimulating effect
same,repulsive effect at 0.03125 mM (in words),[1]; 0.03125 mM,no toxic or repulsive effect
same,concentration at which significantly repulsive,[1]; FIG. 13,0.125 mM
same,"choice between 3,5-diCQ and chlorogenic acid at a single molarity","[1]; FIG. 13, tested against each other, at 0.125 mM","systematically selects CA rather than 3,5-diCQ"
same,repulsive effect of 0.5 mM versus chlorogenic acid at 2 mM,"[1]; FIG. 14, pH 7.5, CA four times higher",remains repulsive
same,dose with highly significant repulsive effect,[1]; [8],0.125 mM
same,minimum concentration at which repulsive effect is detectable,[1]; in vivo,125 µM
same,repulsive effect / activity (in words),[1]; in vivo,repulsive activity
same,minimum concentration at which repulsive effect is detectable,[1]; same value converted,64.5 mg/L
